Tested on: HBV
Test: HBV replication inhibition assay (BDNA assay) in HepG2.2.15 cells
Assay type: cell-based
Details: HBV replication assay (BDNA assay), HepG2.2.15 cells; read-out: DNA EC50
How it was run: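 Supernatant encapsidated HBV DNA was measured by bDNA after DNase digestion and proteinase K release. Stably HBV-integrated HepG2.2.15 cells had two 3-day compound exposures (0.5% DMSO). Signals were background-subtracted and normalized to DMSO wells, and EC50 was obtained by four-parameter fit.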

| SMILES | EC50 |
| --- | --- |
| C[C@@H]1Cc2nn3c(c2CN1C(=O)Nc1ccc(F)c(C#N)c1F)C(=O)N(C)OC(C(=O)N(C)CC(F)F)C3 (stereo in doubt) [Compound 153_D2, (4R*,9R)—N10-(3-cyano-2,4-difluorophenyl)-N4-(2,2-difluoroethyl)-N4,2,9-trimethyl-1-oxo-1,4,5,8,9,11-hexahydropyrido[4′,3′:3,4]pyrazolo[5,1-d][1,2,5]oxadiazepine-4,10(2H)-dicarboxamide] | 1 to 100 nM |
| C[C@@H]1Cc2nn3c(c2CN1C(=O)Nc1cc(Cl)c(F)cc1F)C(=O)N(C)OC(C(=O)N(C)CC(F)F)C3 (stereo in doubt) [Compound 154_D1, (4S*,9R)—N10-(5-chloro-2,4-difluorophenyl)-N4-(2,2-difluoroethyl)-N4,2,9-trimethyl-1-oxo-1,4,5,8,9,11-hexahydropyrido[4′,3′:3,4]pyrazolo[5,1-d][1,2,5]oxadiazepine-4,10(2H)-dicarboxamide] | 500 to 1000 nM |
| C[C@@H]1Cc2nn3c(c2CN1C(=O)Nc1cc(Cl)c(F)cc1F)C(=O)N(C)OC(C(=O)N(C)CC(F)F)C3 (stereo in doubt) [Compound 154_D2, (4R*,9R)—N10-(5-chloro-2,4-difluorophenyl)-N4-(2,2-difluoroethyl)-N4,2,9-trimethyl-1-oxo-1,4,5,8,9,11-hexahydropyrido[4′,3′:3,4]pyrazolo[5,1-d][1,2,5]oxadiazepine-4,10(2H)-dicarboxamide] | 1 to 100 nM |
| C[C@@H]1Cc2nn3c(c2CN1C(=O)Nc1ccc(F)c(C#N)c1)C(=O)N(C)OC(C(=O)N(C)CC(F)F)C3 (stereo in doubt) [Compound 155_D1, (4S*,9R)—N10-(3-cyano-4-fluorophenyl)-N4-(2,2-difluoroethyl)-N4,2,9-trimethyl-1-oxo-1,4,5,8,9,11-hexahydropyrido[4′,3′:3,4]pyrazolo[5,1-d][1,2,5]oxadiazepine-4,10(2H)-dicarboxamide] | 500 to 1000 nM |
| C[C@@H]1Cc2nn3c(c2CN1C(=O)Nc1ccc(F)c(C#N)c1)C(=O)N(C)OC(C(=O)N(C)CC(F)F)C3 (stereo in doubt) [Compound 155_D2, (4R*,9R)—N10-(3-cyano-4-fluorophenyl)-N4-(2,2-difluoroethyl)-N4,2,9-trimethyl-1-oxo-1,4,5,8,9,11-hexahydropyrido[4′,3′:3,4]pyrazolo[5,1-d][1,2,5]oxadiazepine-4,10(2H)-dicarboxamide] | 1 to 100 nM |
| C[C@@H]1Cc2nn3c(c2CN1C(=O)Nc1ccc(F)c(C#N)c1)C(=O)N(C)OC(CNCC(F)F)C3 (stereo in doubt) [Compound 183_D2, (4R*,9R)—N-(3-cyano-4-fluorophenyl)-4-(((2,2-difluoroethyl)amino)methyl)-2,9-dimethyl-1-oxo-1,4,5,8,9,11-hexahydropyrido[4′,3′:3,4]pyrazolo[5,1-d][1,2,5]oxadiazepine-10(2H)-carboxamide] | 1 to 100 nM |
| C[C@@H]1Cc2nn3c(c2CN1C(=O)Nc1ccc(F)c(Br)c1)C(=O)N(C)OC(CNCC(F)F)C3 (stereo in doubt) [Compound 184_D2, (4R*,9R)—N-(3-bromo-4-fluorophenyl)-4-(((2,2-difluoroethyl)amino)methyl)-2,9-dimethyl-1-oxo-1,4,5,8,9,11-hexahydropyrido[4′,3′:3,4]pyrazolo[5,1-d][1,2,5]oxadiazepine-10(2H)-carboxamide] | 1 to 100 nM |
| Cc1cc(NC(=O)N2Cc3c(nn4c3C(=O)N(C)OC(CNCC(F)F)C4)C[C@H]2C)ccc1F (stereo in doubt) [Compound 185_D2, (4R*,9R)-4-(((2,2-difluoroethyl)amino)methyl)-N-(4-fluoro-3-methylphenyl)-2,9-dimethyl-1-oxo-1,4,5,8,9,11-hexahydropyrido[4′,3′:3,4]pyrazolo[5,1-d][1,2,5]oxadiazepine-10(2H)-carboxamide] | 1 to 100 nM |

Same assay, conditions: Hepatitis B virus, HepG2.2.15, HBV replication assay (BDNA assay), HepG2.2.15 cells; read-out: DNA EC50

| SMILES | EC50 |
| --- | --- |
| CNC(=O)C1Cn2nc3c(c2C(=O)N(C)O1)CN(C(=O)Nc1ccc(F)c(C#N)c1F)[C@H](C)C3 (stereo in doubt) [Compound 156_D2, (4R*,9R)—N10-(3-cyano-2,4-difluorophenyl)-N4,2,9-trimethyl-1-oxo-1,4,5,8,9,11-hexahydropyrido[4′,3′:3,4]pyrazolo[5,1-d][1,2,5]oxadiazepine-4,10(2H)-dicarboxamide] | 1 to 100 nM |
| C[C@@H]1Cc2nn3c(c2CN1C(=O)Nc1ccc(F)c(C#N)c1)C(=O)N(C)OC(CNCC(F)F)C3 (stereo in doubt) [Compound 183_D1, (4S*,9R)—N-(3-cyano-4-fluorophenyl)-4-(((2,2-difluoroethyl)amino)methyl)-2,9-dimethyl-1-oxo-1,4,5,8,9,11-hexahydropyrido[4′,3′:3,4]pyrazolo[5,1-d][1,2,5]oxadiazepine-10(2H)-carboxamide] | 1 to 100 nM |
| C[C@@H]1Cc2nn3c(c2CN1C(=O)Nc1ccc(F)c(Br)c1)C(=O)N(C)OC(CNCC(F)F)C3 (stereo in doubt) [Compound 184_D1, (4S*,9R)—N-(3-bromo-4-fluorophenyl)-4-(((2,2-difluoroethyl)amino)methyl)-2,9-dimethyl-1-oxo-1,4,5,8,9,11-hexahydropyrido[4′,3′:3,4]pyrazolo[5,1-d][1,2,5]oxadiazepine-10(2H)-carboxamide] | 1 to 100 nM |
| Cc1cc(NC(=O)N2Cc3c(nn4c3C(=O)N(C)OC(CNCC(F)F)C4)C[C@H]2C)ccc1F (stereo in doubt) [Compound 185_D1, (4S*,9R)-4-(((2,2-difluoroethyl)amino)methyl)-N-(4-fluoro-3-methylphenyl)-2,9-dimethyl-1-oxo-1,4,5,8,9,11-hexahydropyrido[4′,3′:3,4]pyrazolo[5,1-d][1,2,5]oxadiazepine-10(2H)-carboxamide] | 1 to 100 nM |
| CN1O[C@H](CNCC(F)F)Cn2nc3c(c2C1=O)CN(C(=O)Nc1ccc(F)c(C(F)(F)F)c1)CC3 (stereo in doubt) [Compound 194_E1, (S*)-4-4(2,2-difluoroethyl)amino)methyl)-N-(4-fluoro-3-(trifluoromethyl)phenyl)-2-methyl-1-oxo-1,4,5,8,9,11-hexahydropyrido[4′,3′:3,4]pyrazolo[5,1-d][1,2,5]oxadiazepine-10(2H)-carboxamide] | 1 to 100 nM |
| CN1OC(CO)Cn2nc3c(c2C1=O)CN(C(=O)Nc1cccc(Br)c1)CC3 (stereo not drawn) [Compound 001, N-(3-bromophenyl)-4-(hydroxymethyl)-2-methyl-1-oxo-1,4,5,8,9,11-hexahydropyrido[4′,3′:3,4]pyrazolo[5,1-d][1,2,5]oxadiazepine-10(2H)-carboxamide] | 1 to 100 nM |
| Cc1cccc(NC(=O)N2CCc3nn4c(c3C2)C(=O)N(C)OC(CO)C4)c1 (stereo not drawn) [Compound 002, 4-(hydroxymethyl)-2-methyl-1-oxo-N-(m-tolyl)-1,4,5,8,9,11-hexahydropyrido[4′,3′:3,4]pyrazolo[5,1-d][1,2,5]oxadiazepine-10(2H)-carboxamide] | 1 to 100 nM |
| CN1OC(CO)Cn2nc3c(c2C1=O)CN(C(=O)Nc1ccnc(Cl)c1F)CC3 (stereo not drawn) [Compound 003, N-(2-chloro-3-fluoropyridin-4-yl)-4-(hydroxymethyl)-2-methyl-1-oxo-1,4,5,8,9,11-hexahydropyrido[4′,3′:3,4]pyrazolo[5,1-d][1,2,5]oxadiazepine-10(2H)-carboxamide] | 100 to 500 nM |
| CN1OC(CO)Cn2nc3c(c2C1=O)CN(C(=O)Nc1cccc(Br)c1F)CC3 (stereo not drawn) [Compound 004, N-(3-bromo-2-fluorophenyl)-4-(hydroxymethyl)-2-methyl-1-oxo-1,4,5,8,9,11-hexahydropyrido[4′,3′:3,4]pyrazolo[5,1-d][1,2,5]oxadiazepine-10(2H)-carboxamide] | 1 to 100 nM |
| CN1OC(CO)Cn2nc3c(c2C1=O)CN(C(=O)Nc1ccc(F)c(F)c1)CC3 (stereo not drawn) [Compound 005, N-(3,4-difluorophenyl)-4-(hydroxymethyl)-2-methyl-1-oxo-1,4,5,8,9,11-hexahydropyrido[4′,3′:3,4]pyrazolo[5,1-d][1,2,5]oxadiazepine-10(2H)-carboxamide] | 1 to 100 nM |
| CN1OC(CO)Cn2nc3c(c2C1=O)CN(C(=O)Nc1cc(F)c(F)c(F)c1)CC3 (stereo not drawn) [Compound 006, 4-(hydroxymethyl)-2-methyl-1-oxo-N-(3,4,5-trifluorophenyl)-1,4,5,8,9,11-hexahydropyrido[4′,3′:3,4]pyrazolo[5,1-d][1,2,5]oxadiazepine-10(2H)-carboxamide] | 1 to 100 nM |
| CN1OC(CO)Cn2nc3c(c2C1=O)CN(C(=O)Nc1ccc(F)c(Cl)c1F)CC3 (stereo not drawn) [Compound 007, N-(3-chloro-2,4-difluorophenyl)-4-(hydroxymethyl)-2-methyl-1-oxo-1,4,5,8,9,11-hexahydropyrido[4′,3′:3,4]pyrazolo[5,1-d][1,2,5]oxadiazepine-10(2H)-carboxamide] | 1 to 100 nM |
| CN1OC(CO)Cn2nc3c(c2C1=O)CN(C(=O)Nc1cccc(C(F)(F)F)c1)CC3 (stereo not drawn) [Compound 008, 4-(hydroxymethyl)-2-methyl-1-oxo-N-(3-(trifluoromethyl)phenyl)-1,4,5,8,9,11-hexahydropyrido[4′,3′:3,4]pyrazolo[5,1-d][1,2,5]oxadiazepine-10(2H)-carboxamide] | 1 to 100 nM |
| CCc1cccc(NC(=O)N2CCc3nn4c(c3C2)C(=O)N(C)OC(CO)C4)c1 (stereo not drawn) [Compound 009, N-(3-ethylphenyl)-4-(hydroxymethyl)-2-methyl-1-oxo-1,4,5,8,9,11-hexahydropyrido[4′,3′:3,4]pyrazolo[5,1-d][1,2,5]oxadiazepine-10(2H)-carboxamide] | 1 to 100 nM |
| CN1OC(CO)Cn2nc3c(c2C1=O)CN(C(=O)Nc1ccc(F)c(Br)c1F)CC3 (stereo not drawn) [Compound 010, N-(3-bromo-2,4-difluorophenyl)-4-(hydroxymethyl)-2-methyl-1-oxo-1,4,5,8,9,11-hexahydropyrido[4′,3′:3,4]pyrazolo[5,1-d][1,2,5]oxadiazepine-10(2H)-carboxamide] | 1 to 100 nM |
| CN1OC(CO)Cn2nc3c(c2C1=O)CN(C(=O)Nc1ccc(Cl)c(Cl)c1)CC3 (stereo not drawn) [Compound 012, N-(3,4-dichlorophenyl)-4-(hydroxymethyl)-2-methyl-1-oxo-1,4,5,8,9,11-hexahydropyrido[4′,3′:3,4]pyrazolo[5,1-d][1,2,5]oxadiazepine-10(2H)-carboxamide] | 1 to 100 nM |

Source: patent US10987359B2, “Oxadiazepinone derivatives and methods of treating hepatitis B infections” (priority 2016, dated 2021)
